Two substances from paper PMC2064103 (The Journal of Cell Biology, 2007) can be followed below.

Test in all cases: radiolabelled glycopeptide formation, ConA Sepharose capture, gamma counting
The subject of one experiment is T. cruzi OST. Format: biochemical, Trypanosoma cruzi. To be noted: 10 μM acceptor tripeptide; Mg2+, Mn2+, pH 7.4; non-cooperative.
The subject of a further experiment is E. histolytica OST. It counts as biochemical, Entamoeba histolytica. To be noted: 15 μM acceptor tripeptide; Mg2+, Mn2+, pH 7.4; non-cooperative.
For another experiment, the system named is T. vaginalis OST. It counts as biochemical, Trichomonas vaginalis. To be noted: 10 μM acceptor tripeptide; Mg2+, Mn2+, pH 7.4; non-cooperative.

With M9GN2-PP-Dol, the Km with T. cruzi OST turned out to be 0.49 µM. Consider M5GN2-PP-Dol, for which the Km was determined as 0.72 µM in the experiment on E. histolytica OST and 0.22 µM in the experiment with T. vaginalis OST.
